The target in assay [1] is T1, Dual specificity protein kinase TTK (Homo sapiens, UniProt P33981).
T1 sequence (P33981 whole entry): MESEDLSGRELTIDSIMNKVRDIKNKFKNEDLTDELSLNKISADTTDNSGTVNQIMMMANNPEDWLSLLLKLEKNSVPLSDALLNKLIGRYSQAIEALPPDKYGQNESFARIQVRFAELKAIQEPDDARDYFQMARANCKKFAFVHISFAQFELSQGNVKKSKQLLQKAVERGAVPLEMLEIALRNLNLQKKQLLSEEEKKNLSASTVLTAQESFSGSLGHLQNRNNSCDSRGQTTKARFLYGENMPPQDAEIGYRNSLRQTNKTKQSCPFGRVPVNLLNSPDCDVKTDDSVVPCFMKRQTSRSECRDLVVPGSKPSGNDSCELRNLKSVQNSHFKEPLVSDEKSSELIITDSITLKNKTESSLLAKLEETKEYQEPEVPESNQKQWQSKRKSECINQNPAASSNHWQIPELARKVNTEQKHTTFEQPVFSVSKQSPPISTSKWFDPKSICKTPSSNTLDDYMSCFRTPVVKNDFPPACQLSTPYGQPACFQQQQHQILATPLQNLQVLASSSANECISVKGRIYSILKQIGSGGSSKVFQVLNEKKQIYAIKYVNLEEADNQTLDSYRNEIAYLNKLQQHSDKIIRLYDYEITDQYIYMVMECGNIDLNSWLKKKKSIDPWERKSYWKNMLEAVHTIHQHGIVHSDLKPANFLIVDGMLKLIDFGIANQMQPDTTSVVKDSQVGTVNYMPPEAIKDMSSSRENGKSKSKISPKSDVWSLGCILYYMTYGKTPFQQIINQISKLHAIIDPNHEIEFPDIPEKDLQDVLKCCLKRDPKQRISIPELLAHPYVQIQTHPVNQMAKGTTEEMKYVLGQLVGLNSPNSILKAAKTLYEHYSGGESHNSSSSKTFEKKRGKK
The assay can be described thus: Inhibition of MPS1 in human taxol-arrested U2OS cells assessed as effect on histone H3 phosphorylation at ser10 residue incubated for 2 hrs by arrayscan analysis. The format is cell-based.

Assay [2] deals with Tyrosine-protein kinase ZAP-70 (Homo sapiens, UniProt P43403). The assay can be described thus: Inhibition of recombinant ZAP70 (unknown origin).
Assay [3] has as its target Serine/threonine-protein kinase Chk1 (Homo sapiens, UniProt O14757). The assay can be described thus: Inhibition of recombinant CHK1 (unknown origin).
Assay [4] concerns the target Tyrosine-protein kinase Lyn (Homo sapiens, UniProt P07948). The assay can be described thus: Inhibition of recombinant LYN (unknown origin).
Assay [5] addresses Eukaryotic translation initiation factor 2-alpha kinase 3 (Homo sapiens, UniProt Q9NZJ5). The assay can be described thus: Inhibition of recombinant PERK (unknown origin).
In assay [6] the target is Serine/threonine-protein kinase PAK 4 (Homo sapiens, UniProt O96013). The assay can be described thus: Inhibition of recombinant PAK4 (unknown origin).
Assay [7] has as its target Casein kinase 2 (Homo sapiens, UniProt P67870+P68400+P19784+Q8NEV1). The assay can be described thus: Inhibition of recombinant CK2 (unknown origin). The format is protein assay.
Assay [8] concerns the target Activated CDC42 kinase 1 (Homo sapiens, UniProt Q07912). The assay can be described thus: Inhibition of recombinant ACK1 (unknown origin).
Assay [9] deals with Protein kinase C beta type (Homo sapiens, UniProt P05771). The assay can be described thus: Inhibition of recombinant PKCbeta (unknown origin).
Assay [10] concerns the target MAP kinase-activated protein kinase 2 (Homo sapiens, UniProt P49137). The assay can be described thus: Inhibition of recombinant MAPKAPK2 (unknown origin).
Assay [11] has as its target Serine/threonine-protein kinase pim-1 (Homo sapiens, UniProt P11309). The assay can be described thus: Inhibition of recombinant PIM1 (unknown origin).
Assay [12] concerns the target Serine/threonine-protein kinase PLK1 (Homo sapiens, UniProt P53350). The assay can be described thus: Inhibition of recombinant PLK1 (unknown origin).
The target of assay [13] is CDC7/DBF4 (Cell division cycle 7-related protein kinase/Activator of S phase kinase) (Homo sapiens, UniProt O00311). The assay can be described thus: Inhibition of recombinant CDC7/DBF4 (unknown origin). The format is protein-complex assay.
Assay [14] has as its target Insulin receptor (Homo sapiens, UniProt P06213). The assay can be described thus: Inhibition of recombinant IR (unknown origin).
Assay [15] deals with Glycogen synthase kinase-3 beta (Homo sapiens, UniProt P49841). The assay can be described thus: Inhibition of recombinant GSK3beta (unknown origin).
The target in assay [16] is Serine/threonine-protein kinase NIM1 (Homo sapiens, UniProt Q8IY84). The assay can be described thus: Inhibition of recombinant NIM1 (unknown origin).
Assay [17] concerns the target Non-receptor tyrosine-protein kinase TYK2 (Homo sapiens, UniProt P29597). The assay can be described thus: Inhibition of recombinant TYK 2 (unknown origin).
The target of assay [18] is Vascular endothelial growth factor receptor 3 (Homo sapiens, UniProt P35916). The assay can be described thus: Inhibition of recombinant VEGFR3 (unknown origin).
In assay [19] the target is Mast/stem cell growth factor receptor Kit (Homo sapiens, UniProt P10721). The assay can be described thus: Inhibition of recombinant KIT (unknown origin).
Assay [20] has as its target Serine/threonine-protein kinase Nek6 (Homo sapiens, UniProt Q9HC98). The assay can be described thus: Inhibition of recombinant NEK6 (unknown origin).
Assay [21] deals with Fibroblast growth factor receptor 1 (Homo sapiens, UniProt P11362). The assay can be described thus: Inhibition of recombinant FGFR1 (unknown origin).
For assay [22], the target named is Proto-oncogene tyrosine-protein kinase receptor Ret (Homo sapiens, UniProt P07949). The assay can be described thus: Inhibition of recombinant RET (unknown origin).
Assay [23] addresses RAC-alpha serine/threonine-protein kinase (Homo sapiens, UniProt P31749). The assay can be described thus: Inhibition of recombinant AKT1 (unknown origin).
Assay [24] deals with ALK tyrosine kinase receptor (Homo sapiens, UniProt Q9UM73). The assay can be described thus: Inhibition of recombinant ALK (unknown origin).
Assay [25] concerns the target High affinity nerve growth factor receptor (Homo sapiens, UniProt P04629). The assay can be described thus: Inhibition of recombinant TRKA (unknown origin).
Assay [26] addresses Serine/threonine-protein kinase 26 (Homo sapiens, UniProt Q9P289). The assay can be described thus: Inhibition of recombinant MST4 (unknown origin).
Assay [27] can be described thus: Inhibition of recombinant AUR1 (unknown origin). Set-up: species or system Homo sapiens.
Assay [28] has as its target Receptor-type tyrosine-protein kinase FLT3 (Homo sapiens, UniProt P36888). The assay can be described thus: Inhibition of recombinant FLT3 (unknown origin).
In assay [29] the target is Tyrosine-protein kinase JAK1 (Homo sapiens, UniProt P23458). The assay can be described thus: Inhibition of recombinant JAK1 (unknown origin).
Assay [30] addresses Serine/threonine-protein kinase pim-2 (Homo sapiens, UniProt Q9P1W9). The assay can be described thus: Inhibition of recombinant PIM2 (unknown origin).
The nature of assay [31]: Inhibition of recombinant ABL (unknown origin). Set-up: species or system Homo sapiens.
In assay [32] the target is Vascular endothelial growth factor receptor 2 (Homo sapiens, UniProt P35968). The assay can be described thus: Inhibition of recombinant VEGFR2 (unknown origin).
The target in assay [33] is Inhibitor of nuclear factor kappa-B kinase subunit beta (Homo sapiens, UniProt O14920). The assay can be described thus: Inhibition of recombinant IKK2 (unknown origin).
For assay [34], the target named is Mitotic checkpoint serine/threonine-protein kinase BUB1 (Homo sapiens, UniProt O43683). The assay can be described thus: Inhibition of recombinant BUB1 (unknown origin).
The target in assay [35] is Eukaryotic elongation factor 2 kinase (Homo sapiens, UniProt O00418). The assay can be described thus: Inhibition of recombinant EEF2K (unknown origin).
The nature of assay [36]: Inhibition of recombinant PDGFR (unknown origin). Set-up: species or system Homo sapiens.
Assay [37] has as its target Tyrosine-protein kinase JAK3 (Homo sapiens, UniProt P52333). The assay can be described thus: Inhibition of recombinant JAK3 (unknown origin).
The target in assay [38] is Mitogen-activated protein kinase 1 (Homo sapiens, UniProt P28482). The assay can be described thus: Inhibition of recombinant ERK2 (unknown origin).
A short description of assay [39]: Inhibition of recombinant AUR2 (unknown origin). Set-up: species or system Homo sapiens.
In assay [40] the target is Focal adhesion kinase 1 (Homo sapiens, UniProt Q05397). The assay can be described thus: Inhibition of recombinant FAK (unknown origin).
Assay [41] concerns the target Tyrosine-protein kinase Lck (Homo sapiens, UniProt P06239). The assay can be described thus: Inhibition of recombinant LCK (unknown origin).
Assay [42] deals with T1, Dual specificity protein kinase TTK. The assay can be described thus: Inhibition of recombinant MPS1 (unknown origin).
For assay [43], the target named is Serine/threonine-protein kinase haspin (Homo sapiens, UniProt Q8TF76). The assay can be described thus: Inhibition of recombinant Haspin (unknown origin).
Assay [44] in a line: Inhibition of recombinant SULU1 (unknown origin). Set-up: species or system Homo sapiens.
The target of assay [45] is Maternal embryonic leucine zipper kinase (Homo sapiens, UniProt Q14680). The assay can be described thus: Inhibition of recombinant MELK (unknown origin).
Assay [46] deals with Protein-tyrosine kinase 6 (Homo sapiens, UniProt Q13882). The assay can be described thus: Inhibition of recombinant BRK (unknown origin).

Each structure is given as a SMILES string.

Maternal embryonic leucine zipper kinase, sequence (Q14680 whole entry): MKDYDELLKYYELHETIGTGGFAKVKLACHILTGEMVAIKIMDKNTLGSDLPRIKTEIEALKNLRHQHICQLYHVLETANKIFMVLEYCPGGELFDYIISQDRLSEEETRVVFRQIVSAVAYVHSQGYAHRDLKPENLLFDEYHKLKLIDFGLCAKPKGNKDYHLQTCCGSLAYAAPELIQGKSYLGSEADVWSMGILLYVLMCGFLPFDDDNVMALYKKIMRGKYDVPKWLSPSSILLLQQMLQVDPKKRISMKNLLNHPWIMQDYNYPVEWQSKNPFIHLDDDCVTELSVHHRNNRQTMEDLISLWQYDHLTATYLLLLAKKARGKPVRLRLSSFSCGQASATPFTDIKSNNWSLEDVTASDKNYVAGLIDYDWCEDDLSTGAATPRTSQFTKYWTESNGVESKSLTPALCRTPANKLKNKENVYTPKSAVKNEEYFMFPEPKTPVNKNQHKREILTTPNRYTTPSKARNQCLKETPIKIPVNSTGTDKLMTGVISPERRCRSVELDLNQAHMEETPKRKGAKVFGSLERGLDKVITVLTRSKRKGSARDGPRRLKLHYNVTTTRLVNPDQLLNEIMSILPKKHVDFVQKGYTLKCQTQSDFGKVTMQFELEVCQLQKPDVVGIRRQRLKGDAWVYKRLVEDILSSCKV
Protein kinase C beta type, sequence (P05771 whole entry): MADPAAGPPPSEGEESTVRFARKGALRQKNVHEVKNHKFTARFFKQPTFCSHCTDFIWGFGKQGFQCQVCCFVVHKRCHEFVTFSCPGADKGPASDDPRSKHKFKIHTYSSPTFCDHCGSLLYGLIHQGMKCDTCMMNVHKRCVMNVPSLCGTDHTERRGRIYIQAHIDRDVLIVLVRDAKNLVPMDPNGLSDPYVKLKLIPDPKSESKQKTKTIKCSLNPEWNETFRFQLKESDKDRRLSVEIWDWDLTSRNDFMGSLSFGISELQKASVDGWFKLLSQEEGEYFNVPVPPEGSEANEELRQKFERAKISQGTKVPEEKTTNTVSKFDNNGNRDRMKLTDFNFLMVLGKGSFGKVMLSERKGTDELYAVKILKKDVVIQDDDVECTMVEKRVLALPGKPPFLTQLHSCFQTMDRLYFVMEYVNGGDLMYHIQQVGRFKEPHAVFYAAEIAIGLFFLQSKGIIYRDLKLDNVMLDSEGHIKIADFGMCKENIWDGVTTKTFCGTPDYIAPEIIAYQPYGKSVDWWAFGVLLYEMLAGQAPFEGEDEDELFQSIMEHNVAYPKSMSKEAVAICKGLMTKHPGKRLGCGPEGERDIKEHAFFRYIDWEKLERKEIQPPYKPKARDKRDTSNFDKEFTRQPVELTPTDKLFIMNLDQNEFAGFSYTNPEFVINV
ALK tyrosine kinase receptor, sequence (Q9UM73 whole entry): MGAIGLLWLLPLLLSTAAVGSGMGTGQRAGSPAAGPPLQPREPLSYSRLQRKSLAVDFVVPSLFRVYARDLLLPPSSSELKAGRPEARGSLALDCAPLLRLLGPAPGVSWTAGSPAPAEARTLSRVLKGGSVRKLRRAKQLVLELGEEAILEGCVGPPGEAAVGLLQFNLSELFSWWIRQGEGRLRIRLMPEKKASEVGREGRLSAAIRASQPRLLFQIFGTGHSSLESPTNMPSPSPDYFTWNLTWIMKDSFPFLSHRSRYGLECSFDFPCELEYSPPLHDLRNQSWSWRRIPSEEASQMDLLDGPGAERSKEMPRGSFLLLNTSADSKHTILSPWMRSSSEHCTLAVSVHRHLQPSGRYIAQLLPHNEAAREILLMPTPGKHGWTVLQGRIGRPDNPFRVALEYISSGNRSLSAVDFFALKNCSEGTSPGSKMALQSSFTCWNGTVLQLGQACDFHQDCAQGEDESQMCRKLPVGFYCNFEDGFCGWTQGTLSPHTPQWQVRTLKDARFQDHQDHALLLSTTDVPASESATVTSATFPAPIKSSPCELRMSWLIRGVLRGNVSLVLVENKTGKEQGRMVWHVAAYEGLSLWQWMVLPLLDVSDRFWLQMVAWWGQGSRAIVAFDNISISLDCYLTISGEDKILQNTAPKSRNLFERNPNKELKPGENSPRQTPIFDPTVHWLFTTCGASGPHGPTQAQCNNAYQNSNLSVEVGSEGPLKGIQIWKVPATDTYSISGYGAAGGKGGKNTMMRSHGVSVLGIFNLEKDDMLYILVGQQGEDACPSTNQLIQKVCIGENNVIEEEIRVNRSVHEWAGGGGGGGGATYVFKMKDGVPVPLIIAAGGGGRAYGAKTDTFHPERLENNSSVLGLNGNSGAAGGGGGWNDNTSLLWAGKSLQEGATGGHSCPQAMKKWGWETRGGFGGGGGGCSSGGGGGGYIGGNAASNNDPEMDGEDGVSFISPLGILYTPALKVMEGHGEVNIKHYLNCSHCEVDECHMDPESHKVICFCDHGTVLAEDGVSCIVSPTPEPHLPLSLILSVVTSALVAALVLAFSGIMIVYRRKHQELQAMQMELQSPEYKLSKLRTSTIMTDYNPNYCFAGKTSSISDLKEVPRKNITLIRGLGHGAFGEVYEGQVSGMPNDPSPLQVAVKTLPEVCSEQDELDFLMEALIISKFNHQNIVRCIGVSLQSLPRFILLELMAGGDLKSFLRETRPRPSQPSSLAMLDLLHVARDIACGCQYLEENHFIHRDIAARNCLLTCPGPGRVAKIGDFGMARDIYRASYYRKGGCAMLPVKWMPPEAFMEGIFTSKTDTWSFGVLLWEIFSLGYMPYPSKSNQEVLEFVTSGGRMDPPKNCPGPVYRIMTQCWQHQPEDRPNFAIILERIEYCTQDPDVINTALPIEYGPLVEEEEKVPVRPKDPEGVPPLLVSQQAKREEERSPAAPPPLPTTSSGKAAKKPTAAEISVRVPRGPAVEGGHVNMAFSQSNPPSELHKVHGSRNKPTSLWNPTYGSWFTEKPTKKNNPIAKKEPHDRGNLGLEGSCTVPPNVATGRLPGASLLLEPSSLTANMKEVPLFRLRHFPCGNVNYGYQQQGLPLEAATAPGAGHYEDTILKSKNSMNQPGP
Glycogen synthase kinase-3 beta, sequence (P49841 whole entry): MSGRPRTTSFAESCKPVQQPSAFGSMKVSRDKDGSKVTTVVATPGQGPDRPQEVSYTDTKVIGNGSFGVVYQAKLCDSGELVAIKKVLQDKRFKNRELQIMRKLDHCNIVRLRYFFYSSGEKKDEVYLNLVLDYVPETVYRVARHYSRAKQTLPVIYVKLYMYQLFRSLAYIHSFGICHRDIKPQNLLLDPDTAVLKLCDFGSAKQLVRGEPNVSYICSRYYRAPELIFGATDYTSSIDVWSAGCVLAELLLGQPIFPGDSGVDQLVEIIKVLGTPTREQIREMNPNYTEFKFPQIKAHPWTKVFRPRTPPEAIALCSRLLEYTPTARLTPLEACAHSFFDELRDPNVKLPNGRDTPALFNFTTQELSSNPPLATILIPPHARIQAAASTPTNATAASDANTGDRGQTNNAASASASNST
Proto-oncogene tyrosine-protein kinase receptor Ret, sequence (P07949 whole entry): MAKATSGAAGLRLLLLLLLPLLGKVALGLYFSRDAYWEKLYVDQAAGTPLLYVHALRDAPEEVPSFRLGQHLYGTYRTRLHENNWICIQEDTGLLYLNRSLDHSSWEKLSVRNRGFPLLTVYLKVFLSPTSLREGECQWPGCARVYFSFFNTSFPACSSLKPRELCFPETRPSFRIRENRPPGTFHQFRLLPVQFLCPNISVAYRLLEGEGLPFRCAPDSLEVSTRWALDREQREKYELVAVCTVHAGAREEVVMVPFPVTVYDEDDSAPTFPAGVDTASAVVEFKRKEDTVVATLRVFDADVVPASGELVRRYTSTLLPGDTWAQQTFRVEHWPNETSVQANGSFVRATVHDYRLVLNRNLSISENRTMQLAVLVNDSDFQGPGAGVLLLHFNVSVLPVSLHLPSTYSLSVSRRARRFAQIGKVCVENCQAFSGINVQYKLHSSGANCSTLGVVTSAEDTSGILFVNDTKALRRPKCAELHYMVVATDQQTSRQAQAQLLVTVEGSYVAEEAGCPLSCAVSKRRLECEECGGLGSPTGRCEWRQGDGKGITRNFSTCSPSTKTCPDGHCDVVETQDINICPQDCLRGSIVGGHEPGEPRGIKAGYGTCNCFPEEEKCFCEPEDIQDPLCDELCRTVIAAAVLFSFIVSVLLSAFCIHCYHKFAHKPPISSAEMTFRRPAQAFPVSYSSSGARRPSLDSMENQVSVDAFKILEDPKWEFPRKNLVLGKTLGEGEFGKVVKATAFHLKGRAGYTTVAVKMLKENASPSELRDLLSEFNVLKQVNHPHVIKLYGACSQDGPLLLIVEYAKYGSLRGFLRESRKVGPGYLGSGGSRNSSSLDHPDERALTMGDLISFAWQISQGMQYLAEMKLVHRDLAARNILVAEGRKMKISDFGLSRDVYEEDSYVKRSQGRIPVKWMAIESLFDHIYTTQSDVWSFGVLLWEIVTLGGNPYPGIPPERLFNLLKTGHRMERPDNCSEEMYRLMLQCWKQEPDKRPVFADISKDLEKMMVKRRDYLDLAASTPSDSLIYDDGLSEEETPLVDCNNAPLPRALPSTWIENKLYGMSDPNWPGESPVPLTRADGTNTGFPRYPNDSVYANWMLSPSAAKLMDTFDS
Tyrosine-protein kinase Lyn, sequence (P07948 whole entry): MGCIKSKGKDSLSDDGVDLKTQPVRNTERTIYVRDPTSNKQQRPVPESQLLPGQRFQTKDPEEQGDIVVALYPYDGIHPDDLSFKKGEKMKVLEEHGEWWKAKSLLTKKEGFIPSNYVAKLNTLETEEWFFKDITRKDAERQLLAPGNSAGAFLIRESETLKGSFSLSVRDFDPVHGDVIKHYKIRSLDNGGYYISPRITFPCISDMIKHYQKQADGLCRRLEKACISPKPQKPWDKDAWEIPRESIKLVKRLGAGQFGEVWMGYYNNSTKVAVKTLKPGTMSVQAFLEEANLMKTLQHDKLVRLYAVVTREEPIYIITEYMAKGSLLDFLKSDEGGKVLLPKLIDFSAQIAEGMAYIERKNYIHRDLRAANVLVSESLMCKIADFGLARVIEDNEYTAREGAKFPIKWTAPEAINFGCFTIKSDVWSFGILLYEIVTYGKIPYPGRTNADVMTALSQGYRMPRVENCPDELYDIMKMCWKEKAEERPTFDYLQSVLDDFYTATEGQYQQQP

With `Cn1c2ccccc2c2c3c(c4c5ccccc5n(CCC#N)c4c21)CNC3=O` [GO-6976], in assay [1] (u2os), the EC50 worked out at 1990 nM.
As for `O=C1c2ccccc2-c2n[nH]c3cccc1c23`, the IC50 in assay [2] was greater than 10000 nM; in assay [3], greater than 10000 nM; in [4] it was greater than 10000 nM; in assay [5], greater than 10000 nM; in assay [6], greater than 10000 nM; in assay [7] it was 650 nM. Moreover, the IC50 in assay [8] was 2290 nM; in [9], greater than 10000 nM; in assay [10] it was greater than 10000 nM; in assay [11], 3280 nM; in assay [12] it was greater than 10000 nM; in assay [13] it was 1590 nM. For the same compound, the IC50 in assay [14] is 4010 nM; in assay [15] it was greater than 10000 nM; in assay [16] it was greater than 10000 nM; in assay [17] it was 880 nM; in assay [18], 300 nM; in assay [19], 870 nM. The IC50 in [20] is greater than 10000 nM; in [21], 2400 nM; in [22], 1090 nM; in assay [23], greater than 10000 nM; in assay [24], greater than 10000 nM; in assay [25], 70 nM. The IC50 was greater than 10000 nM in assay [26]; 60 nM in assay [27]; 90 nM in [28]; 4650 nM in [29]; 1050 nM in assay [30]; greater than 10000 nM in assay [31]. Besides, the IC50 was 2930 nM in [32]; 1020 nM in assay [33]; greater than 10000 nM in assay [34]; greater than 10000 nM in [35]; greater than 10000 nM in assay [36]; 410 nM in assay [37]. The IC50 in [38] was greater than 10000 nM; in assay [39], 190 nM; in assay [40] it was 3860 nM; in [41], greater than 10000 nM; in assay [42], 1950 nM; in assay [43] it was 510 nM. Further, the values for the IC50 in [44], in assay [45] and in [46] were greater than 10000 nM, 110 nM and greater than 10000 nM, respectively. The EC50 in assay [1] was found to be 8980 nM.
For the compound `COc1cc2c(Nc3ccc(NC(=O)c4ccccc4)cc3)ncnc2cc1OCCCN1CCOCC1`, in assay [1] (u2os), the EC50 turned out to be 2280 nM.

The term EC50 denotes the concentration that produces a half-maximal response. As usually defined, the IC50 is the point on the concentration scale where inhibition reaches its midpoint.
